In ChEMBL document CHEMBL3430320, “Prediction of Thorough QT study results using action potential simulations based on ion channel screens” (J Pharmacol Toxicol Methods, 2014):

Assays:
[1] = molecular target: T1, Voltage-dependent L-type calcium channel subunit alpha-1C (Homo sapiens, UniProt Q13936); test: Inhibition of long-lasting type calcium current (hICa) in Chinese Hamster Ovary (CHO) cells expressing hCav1.2 measured using IonWorks Quattro automated patch clamp platform; type: functional, cell-based, Cricetulus griseus
[2] = molecular target: T2, A-type voltage-gated potassium channel KCND3 (Homo sapiens, UniProt Q9UK17); test: Inhibition of transient outward potassium current (Ito) current in Chinese Hamster Ovary (CHO) K1 cells expressing human Kv4.3 measured using IonWorks Quattro automated patch clamp platform; type: functional, cell-based, Cricetulus griseus
T2 sequence (Q9UK17 whole entry): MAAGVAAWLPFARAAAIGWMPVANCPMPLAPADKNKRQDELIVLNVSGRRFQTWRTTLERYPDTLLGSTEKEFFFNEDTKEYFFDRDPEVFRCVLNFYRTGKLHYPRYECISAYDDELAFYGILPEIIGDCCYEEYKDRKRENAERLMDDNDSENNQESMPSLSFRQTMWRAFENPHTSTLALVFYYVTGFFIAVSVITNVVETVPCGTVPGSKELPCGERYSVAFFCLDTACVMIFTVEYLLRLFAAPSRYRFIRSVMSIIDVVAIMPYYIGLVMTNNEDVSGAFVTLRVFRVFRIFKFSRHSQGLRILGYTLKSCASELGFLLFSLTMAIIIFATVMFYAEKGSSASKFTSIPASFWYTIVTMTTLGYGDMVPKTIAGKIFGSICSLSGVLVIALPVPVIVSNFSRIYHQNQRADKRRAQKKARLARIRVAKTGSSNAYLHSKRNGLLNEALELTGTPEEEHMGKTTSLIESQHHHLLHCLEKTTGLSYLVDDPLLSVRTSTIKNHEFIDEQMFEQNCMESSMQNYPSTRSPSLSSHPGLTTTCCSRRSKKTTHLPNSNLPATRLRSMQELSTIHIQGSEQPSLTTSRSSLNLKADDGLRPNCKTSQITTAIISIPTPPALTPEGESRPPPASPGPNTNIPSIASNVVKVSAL

[3] = molecular target: T3, Voltage-gated inwardly rectifying potassium channel KCNH2 (Homo sapiens, UniProt Q12809); test: Inhibition of rapid delayed inward rectifying potassium current (IKr) in Chinese hamster ovary (CHO) K1 cells stably expressing hERG measured using IonWorks Quattro automated patch clamp platform; type: functional, cell-based, Cricetulus griseus
[4] = molecular target: T1, Voltage-dependent L-type calcium channel subunit alpha-1C; test: Inhibition of long-lasting type calcium current (ICaL) in HEK293 cells (alpha1C/beta2a/alpha2delta1) cells measured using IonWorks Barracuda automated patch clamp platform; type: functional, cell-based
[5] = molecular target: T4, Voltage-gated potassium channel, IKs; KCNQ1(Kv7.1)/KCNE1(MinK) (Homo sapiens, UniProt P51787+P15382); test: Inhibition of slow delayed inward rectifying potassium current (Iks) in Chinese Hamster Ovary (CHO) cells transfected with KCNQ1 / […] / KvLQT1 and KCNE1/minK measured using IonWorks automated patch clamp platform; type: functional, cell-based, Cricetulus griseus
[6] = molecular target: T3, Voltage-gated inwardly rectifying potassium channel KCNH2; test: Inhibition of rapid delayed inward rectifying potassium current (IKr) in Chinese hamster ovary (CHO) cells stable expressing hERG measured using IonWorks Barracuda automated patch clamp platform; type: functional, cell-based, Cricetulus griseus
[7] = molecular target: T3, Voltage-gated inwardly rectifying potassium channel KCNH2; test: Inhibition of rapid delayed inward rectifying potassium current (IKr) measured using manual patch clamp assay; type: functional
[8] = molecular target: T4, Voltage-gated potassium channel, IKs; KCNQ1(Kv7.1)/KCNE1(MinK); test: (§1) Inhibition of slow delayed inward rectifying potassium current (Iks) in Chinese Hamster Ovary (CHO) cells expressing hKvLQT1/hminK measured using IonWorks Quattro automated patch clamp platform; type: functional, cell-based, Cricetulus griseus
[9] = molecular target: Voltage-gated potassium channel, IKs; KCNQ1(Kv7.1)/KCNE1(MinK) (Homo sapiens, UniProt P15382+P51787); test: as §1; type: functional, cell-based, Cricetulus griseus
[10] = molecular target: T3, Voltage-gated inwardly rectifying potassium channel KCNH2
[11] = molecular target: Sodium channel protein type 5 subunit alpha (Homo sapiens, UniProt Q14524); test: Inhibition of fast sodium current (INa) in HEK293 cells transfected with human Nav1.5 measured using IonWorks Quattro automated patch clamp platform; type: functional, cell-based

T1 sequence (Q13936 whole entry): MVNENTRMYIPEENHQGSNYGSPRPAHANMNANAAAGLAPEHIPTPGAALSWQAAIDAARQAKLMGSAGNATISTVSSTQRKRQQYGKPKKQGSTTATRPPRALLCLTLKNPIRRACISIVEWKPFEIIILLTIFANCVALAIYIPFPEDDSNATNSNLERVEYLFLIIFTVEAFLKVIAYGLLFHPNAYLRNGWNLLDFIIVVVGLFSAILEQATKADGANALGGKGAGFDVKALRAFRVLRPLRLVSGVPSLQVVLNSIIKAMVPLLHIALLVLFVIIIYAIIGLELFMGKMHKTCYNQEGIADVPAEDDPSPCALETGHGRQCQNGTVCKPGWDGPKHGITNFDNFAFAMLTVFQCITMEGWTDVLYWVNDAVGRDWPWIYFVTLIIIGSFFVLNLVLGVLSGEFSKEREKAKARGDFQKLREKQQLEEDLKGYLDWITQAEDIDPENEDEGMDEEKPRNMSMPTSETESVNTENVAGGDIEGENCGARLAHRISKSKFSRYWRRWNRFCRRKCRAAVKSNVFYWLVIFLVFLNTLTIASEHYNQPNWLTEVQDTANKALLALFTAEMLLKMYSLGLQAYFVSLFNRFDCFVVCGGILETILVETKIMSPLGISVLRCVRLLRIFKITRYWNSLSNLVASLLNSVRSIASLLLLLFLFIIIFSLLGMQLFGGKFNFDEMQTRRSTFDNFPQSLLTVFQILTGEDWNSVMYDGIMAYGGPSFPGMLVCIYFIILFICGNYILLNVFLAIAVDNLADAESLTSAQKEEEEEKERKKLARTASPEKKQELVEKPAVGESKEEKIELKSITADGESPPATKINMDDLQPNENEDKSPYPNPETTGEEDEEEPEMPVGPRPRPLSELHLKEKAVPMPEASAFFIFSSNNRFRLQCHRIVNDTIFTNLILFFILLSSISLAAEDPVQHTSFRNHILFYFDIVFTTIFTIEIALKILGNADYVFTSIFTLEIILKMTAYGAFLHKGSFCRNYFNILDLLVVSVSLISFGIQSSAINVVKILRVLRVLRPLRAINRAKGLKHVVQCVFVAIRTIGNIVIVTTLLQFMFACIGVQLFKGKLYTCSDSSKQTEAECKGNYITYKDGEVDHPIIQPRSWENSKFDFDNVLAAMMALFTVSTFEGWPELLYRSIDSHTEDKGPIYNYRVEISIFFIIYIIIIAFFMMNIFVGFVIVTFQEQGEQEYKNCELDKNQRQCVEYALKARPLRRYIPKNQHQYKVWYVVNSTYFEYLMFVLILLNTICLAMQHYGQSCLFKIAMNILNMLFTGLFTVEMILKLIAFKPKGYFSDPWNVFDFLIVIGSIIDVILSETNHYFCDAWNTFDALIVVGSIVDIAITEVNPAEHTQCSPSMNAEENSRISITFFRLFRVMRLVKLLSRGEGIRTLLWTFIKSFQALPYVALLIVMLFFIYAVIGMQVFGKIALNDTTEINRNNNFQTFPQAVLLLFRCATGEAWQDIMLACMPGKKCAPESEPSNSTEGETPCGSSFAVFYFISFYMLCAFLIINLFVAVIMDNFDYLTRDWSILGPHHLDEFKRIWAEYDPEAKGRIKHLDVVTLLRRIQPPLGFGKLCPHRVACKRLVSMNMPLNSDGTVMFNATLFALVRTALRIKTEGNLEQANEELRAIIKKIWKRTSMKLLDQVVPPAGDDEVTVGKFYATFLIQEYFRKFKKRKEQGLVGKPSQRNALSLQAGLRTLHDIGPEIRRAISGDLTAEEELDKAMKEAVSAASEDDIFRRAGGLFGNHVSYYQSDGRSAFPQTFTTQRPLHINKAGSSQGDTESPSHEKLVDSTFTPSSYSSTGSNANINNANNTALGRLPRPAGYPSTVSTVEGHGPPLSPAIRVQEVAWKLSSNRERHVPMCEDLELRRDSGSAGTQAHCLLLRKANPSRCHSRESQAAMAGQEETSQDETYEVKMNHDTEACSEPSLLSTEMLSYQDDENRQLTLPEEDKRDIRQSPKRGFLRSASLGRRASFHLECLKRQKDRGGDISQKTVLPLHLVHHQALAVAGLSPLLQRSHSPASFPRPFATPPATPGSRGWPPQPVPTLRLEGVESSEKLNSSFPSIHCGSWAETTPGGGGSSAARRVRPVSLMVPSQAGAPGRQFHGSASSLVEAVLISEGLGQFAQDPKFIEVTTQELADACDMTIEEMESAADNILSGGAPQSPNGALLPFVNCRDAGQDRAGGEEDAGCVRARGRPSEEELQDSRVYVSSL
T3 sequence (Q12809 whole entry): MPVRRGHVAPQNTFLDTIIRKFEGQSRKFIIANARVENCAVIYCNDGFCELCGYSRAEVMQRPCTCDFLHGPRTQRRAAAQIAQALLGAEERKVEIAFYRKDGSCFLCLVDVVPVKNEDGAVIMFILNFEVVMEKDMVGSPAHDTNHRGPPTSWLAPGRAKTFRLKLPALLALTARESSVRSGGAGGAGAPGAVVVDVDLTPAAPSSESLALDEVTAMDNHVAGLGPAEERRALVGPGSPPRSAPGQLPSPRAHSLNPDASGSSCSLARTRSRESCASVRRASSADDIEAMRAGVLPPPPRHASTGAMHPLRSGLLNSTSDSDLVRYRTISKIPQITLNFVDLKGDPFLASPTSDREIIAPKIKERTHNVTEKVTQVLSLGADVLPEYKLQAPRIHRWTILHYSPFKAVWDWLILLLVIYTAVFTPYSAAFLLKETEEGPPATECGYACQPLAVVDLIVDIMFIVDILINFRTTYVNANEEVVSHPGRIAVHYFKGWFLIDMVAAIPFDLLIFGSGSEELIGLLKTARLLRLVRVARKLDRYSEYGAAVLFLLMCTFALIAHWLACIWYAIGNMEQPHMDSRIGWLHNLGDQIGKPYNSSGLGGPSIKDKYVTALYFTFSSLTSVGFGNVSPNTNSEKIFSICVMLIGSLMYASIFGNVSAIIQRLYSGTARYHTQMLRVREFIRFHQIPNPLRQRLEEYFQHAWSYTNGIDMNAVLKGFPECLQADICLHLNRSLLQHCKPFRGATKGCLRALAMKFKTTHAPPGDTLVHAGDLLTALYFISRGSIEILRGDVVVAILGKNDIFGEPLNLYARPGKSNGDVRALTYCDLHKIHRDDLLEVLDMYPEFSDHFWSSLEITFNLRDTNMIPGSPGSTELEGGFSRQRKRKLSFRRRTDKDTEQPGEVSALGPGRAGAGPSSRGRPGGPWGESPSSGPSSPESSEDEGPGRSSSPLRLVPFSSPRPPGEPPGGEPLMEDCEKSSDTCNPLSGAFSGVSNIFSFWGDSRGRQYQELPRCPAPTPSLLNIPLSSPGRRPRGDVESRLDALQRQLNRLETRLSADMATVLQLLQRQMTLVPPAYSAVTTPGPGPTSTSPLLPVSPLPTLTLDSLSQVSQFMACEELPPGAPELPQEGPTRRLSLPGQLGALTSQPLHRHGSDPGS
T4 sequence (P51787 whole entry): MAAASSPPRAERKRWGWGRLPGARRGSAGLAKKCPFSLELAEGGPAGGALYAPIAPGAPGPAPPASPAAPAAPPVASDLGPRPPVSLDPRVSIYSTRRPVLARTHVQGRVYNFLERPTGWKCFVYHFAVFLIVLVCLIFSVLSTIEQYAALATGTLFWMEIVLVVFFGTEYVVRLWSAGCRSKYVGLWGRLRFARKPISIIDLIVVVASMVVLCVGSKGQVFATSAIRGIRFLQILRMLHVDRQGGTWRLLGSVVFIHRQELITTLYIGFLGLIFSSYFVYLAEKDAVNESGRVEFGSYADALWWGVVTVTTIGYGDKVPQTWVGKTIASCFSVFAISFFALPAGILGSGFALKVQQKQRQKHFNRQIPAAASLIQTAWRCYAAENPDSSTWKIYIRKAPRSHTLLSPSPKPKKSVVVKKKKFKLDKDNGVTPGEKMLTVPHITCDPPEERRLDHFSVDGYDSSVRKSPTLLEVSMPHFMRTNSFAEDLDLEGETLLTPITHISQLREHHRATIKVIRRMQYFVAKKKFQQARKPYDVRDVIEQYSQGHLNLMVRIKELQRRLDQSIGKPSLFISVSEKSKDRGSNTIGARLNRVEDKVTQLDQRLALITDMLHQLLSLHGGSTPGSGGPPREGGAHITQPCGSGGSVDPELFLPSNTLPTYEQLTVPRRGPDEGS
Sequence of Voltage-gated potassium channel, IKs; KCNQ1(Kv7.1)/KCNE1(MinK) (Homo sapiens, UniProt P15382+P51787) (P51787 whole entry): as the sequence (P51787 whole entry) above

Row | SMILES | pIC50 [1] | pIC50 [4] | pIC50 [5] | further results
1 | Cc1cn([C@@H]2C[C@@H](O)[C@H](CO)O2)c(=O)[nH]c1=O [TELBIVUDINE] | Inactive |  |  | pIC50 [2]: Inactive; pIC50 [3]: 2.3
2 | C[C@H]1CN(C[C@H](Cc2ccccc2)C(=O)NCC(=O)O)CC[C@@]1(C)c1cccc(O)c1 [ALVIMOPAN] |  |  |  | pIC50 [2]: Inactive
3 | CO[C@H]1C[C@@H]2CC[C@@H](C)[C@@](O)(O2)C(=O)C(=O)N2CCCC[C@H]2C(=O)O[C@H]([C@H](C)C[C@@H]2CC[C@@H](OCCO)[C@H](OC)C2)CC(=O)[C@H](C)/C=C(\C)[C@@H](O)[C@@H](OC)C(=O)[C@H](C)C[C@H](C)/C=C/C=C/C=C/1C [EVEROLIMUS] | Inactive | Inactive | Inactive | 
4 | COC(c1ccccc1)(c1ccccc1)[C@H](Oc1nc(C)cc(C)n1)C(=O)O [AMBRISENTAN] |  | Inactive |  | pIC50 [3]: 2.1; pIC50 [6]: Inactive
5 | Cc1nc(Nc2ncc(C(=O)Nc3c(C)cccc3Cl)s2)cc(N2CCN(CCO)CC2)n1.O [DASATINIB] |  |  | Inactive | 
6 | OC(CNCC(O)C1CCc2cc(F)ccc2O1)C1CCc2cc(F)ccc2O1 (stereo unspecified) [NEBIVOLOL] | Inactive |  |  | IC50 [7]: 0.316 µM
7 | COc1cc2nc(N(C)CCCNC(=O)C3CCCO3)nc(N)c2cc1OC (stereo unspecified) [ALFUZOSIN] |  | Inactive | Inactive | 
8 | C[C@@H](O)[C@H]1C(=O)N2C(C(=O)O)=C(S[C@@H]3CN[C@H](CNS(N)(=O)=O)C3)[C@H](C)[C@H]12 [DORIPENEM] |  |  |  | pIC50 [2]: Inactive
9 | CN(C)CC(c1ccc(O)cc1)C1(O)CCCCC1 (stereo unspecified) [DESVENLAFAXINE] | Inactive | Inactive | Inactive | pIC50 [8]: Inactive; pIC50 [3]: 1.7; pIC50 [6]: Inactive
10 | Cc1ccc(O)c([C@H](CCN(C(C)C)C(C)C)c2ccccc2)c1 [TOLTERODINE] |  |  |  | IC50 [9]: 79.4 µM
11 | Cc1cn(-c2cc(NC(=O)c3ccc(C)c(Nc4nccc(-c5cccnc5)n4)c3)cc(C(F)(F)F)c2)cn1 [NILOTINIB] |  |  | Inactive | 
12 | Cc1c(O)cccc1C(=O)N[C@@H](CSc1ccccc1)[C@H](O)CN1C[C@H]2CCCC[C@H]2C[C@H]1C(=O)NC(C)(C)C | Inactive | Inactive | Inactive | 
13 | Cc1cc(C#N)cc(C)c1Oc1nc(Nc2ccc(C#N)cc2)nc(N)c1Br [ETRAVIRINE] | Inactive | Inactive | Inactive | 
14 | CCCc1nc(C)c2c(=O)[nH]c(-c3cc(S(=O)(=O)N4CCN(CC)CC4)ccc3OCC)nn12 |  |  | Inactive | 
15 | O=C(O)c1ccc(-n2nc(-c3ccccc3O)nc2-c2ccccc2O)cc1 [DEFERASIROX] |  | Inactive | Inactive | pIC50 [8]: Inactive; pIC50 [3]: Inactive; pIC50 [6]: Inactive
16 | Nc1nnc(-c2cccc(Cl)c2Cl)c(N)n1 [LAMOTRIGINE] |  |  | Inactive | pIC50 [2]: Inactive
17 | C[C@H](Cc1cc2c(c(C(N)=O)c1)N(CCCO)CC2)NCCOc1ccccc1OCC(F)(F)F [SILODOSIN] |  |  |  | IC50 [10]: 7.94 µM
18 | CC1=NN(c2ccc(C)c(C)c2)C(=O)/C1=N\Nc1cccc(-c2cccc(C(=O)O)c2)c1O [ELTROMBOPAG] | Inactive | Inactive | Inactive | pIC50 [8]: Inactive; pIC50 [3]: Inactive
19 | CS(=O)(=O)CCNCc1ccc(-c2ccc3ncnc(Nc4ccc(OCc5cccc(F)c5)c(Cl)c4)c3c2)o1 [LAPATINIB] |  |  | Inactive | pIC50 [11]: Inactive; pIC50 [2]: Inactive
20 | N[C@@H](CC(=O)N1CCn2c(nnc2C(F)(F)F)C1)Cc1cc(F)c(F)cc1F [SITAGLIPTIN] |  | Inactive | Inactive | 
21 | O=C1c2cccc3c2[C@H](CCC3)CN1[C@@H]1CN2CCC1CC2 [PALONOSETRON] |  |  |  | IC50 [7]: 2 µM; pIC50 [2]: Inactive
